In US20220000964A1, “Compositions and Methods for Regulating Homeostasis of Chondrocytes, Extracellular Matrix, Articular Cartilage, and Phenotype of Arthritis” (Unigen, Inc., priority 2020, published 2022):

How the values were obtained:
Format in all cases: in vivo, rat
[1] = tested on: CIA rats; experiment: CIA rats, ankle joint histopathology (modified Mankin)
Experimental: For histopathological examination, the ankle joints were kept in 10% formalin for 72 h. The fixed specimens were then decalcified with Calci-Clear Rapid for one and a half days and embedded in paraffin. Standardized 5 μm serial sections were obtained at the medial and lateral section in the sagittal plane of the joint and were stained with hematoxylin and eosin (HE) and Safranin O-fast green to enable evaluation of proteoglycan content. A modified Mankin system (Mankin et al., 1971) was used to score structural and cellular alterations of joint tissues resulting from disease progression and/or treatment efficacy. The histological analysis was conducted at Nationwide Histology and slides were examined by a certified pathologist.
At necropsy, the ankle joint was carefully dissected out, fixed in 10% buffered formalin and sent to Nationwide Histology (Veradale, Wash., USA) for further histopathology analysis. The fixed specimens were then decalcified with Calci-Clear Rapid for one and a half days and embedded in paraffin. Standardized 5 m serial sections were obtained from each rat and stained with hematoxylin and eosin (HE) and Safranin O-fast green to enable evaluation of proteoglycan content. A modified Mankin system (Mankin et al., 1981) was used to score structural and cellular alterations of articular components as indications of disease progression and/or treatment efficacy. The histological analysis was conducted by a certified Pathologist at Nationwide Histology.

[2] = tested on: IL-1β; experiment: CIA rats, serum IL-1β ELISA; conditions: AMK CIA study; MTX 75 μg/kg, AMK 200 mg/kg oral
Experimental: The presence of catabolic cytokines IL-1β, TNF-α, or IL-6 was measured using Rat IL-1, TNF-α, and IL-6 Quantikine ELISA kit from R and D Systems (product #: RLB00 for IL-1β, RTA00 for TNF-α, and R6000B for IL-6) as follows: diluted serum was added to a microplate coated with polyclonal IL-1, TNF-α, or IL-6 antibody and allowed to bind for 2 h at room temperature. The microplate was washed thoroughly to remove unbound serum and then a polyclonal enzyme-conjugated IL-1β, TNF-α, or IL-6 antibody was added and allowed to bind for 2 h at room temperature. Washing was repeated, enzyme substrate was added, and the plate was developed for 30 min at room temperature. After the addition of stop solution, the absorbance was read at 450 nm, multiplied by dilution factor, and the concentration of IL-1β/TNF-α/IL-6 calculated based on the absorbance readings of an IL-1β/TNF-α/TL-6 standard curve.

[3] = tested on: CIA rats; experiment: CIA rats, compression-induced pain (Randall-Salitto)
Experimental: Clinical findings such as arthritis severity index, paw thickness, ankle diameter (using Digital Absolute, Model #PK-0505CPX, Mitutoyo Corporation, Kawasaki, Japan), and pain sensitivity (using Randall Salitto, IITC Life Science Inc., Woodland Hills, Calif., USA) were monitored during the course of study. Urine was collected from overnight fasted rats using metabolic cages after three weeks of treatment post-model induction. At Necropsy, serum from the cardiac and synovial lavage (100 μL of saline was injected into the articular cavity and aspirated back to the syringe) for biomarkers and ankle joint for histopathology were collected from each animal.
(§1) Response to pressure as a measure of pain sensitivity was assessed using the Randall-Salitto probe attached to an electronic monitor on priming day, boost day, and days 12, 14, 16, 19, and 21. Both the left and right hind legs were monitored on those days and their average was used for data analysis. Changes from the vehicle-treated CIA rats have been reported as pain tolerance on those days.
as §1, with “measured” for “assessed”, “18” for “19,”, “20.” for “21.”, “averages were” for “average was”, “days. […] This reduction in pain sensitivity was statistically significant at all time points as of day-12 for both groups when compared to vehicle-treated CIA rats (Table 43).” for “days.”

[4] = AMK study, MTX (75 μg/mL), AMK (200 mg/kg)
[5] = AP study, MTX (0.5 mg/mL), AP (200 mg/kg)
[6] = score 0-6, AMK study, MTX (75 μg/mL), AMK (200 mg/kg)
[7] = score, AP study, MTX (0.5 mg/mL), AP (200 mg/kg)

Structure (SMILES): CN(Cc1cnc2nc(N)nc(N)c2n1)c1ccc(C(=O)N[C@@H](CCC(=O)O)C(=O)O)cc1 [Methotrexate]
- Bone Erosion, percent inhibition against vehicle treated disease model [1, 4]: (66.3%)
- Cartilage destruction, percent inhibition against vehicle treated disease model [1, 4]: (32.6%)
- GAG Loss, percent inhibition against vehicle treated disease model [1, 4]: (50.8%)
- Inflammation, percent inhibition against vehicle treated disease model [1, 4]: (36.0%)
- Bone Erosion, percent inhibition against vehicle treated disease model [1, 5]: (100%)
- Cartilage destruction, percent inhibition against vehicle treated disease model [1, 5]: (98.3%)
- GAG Loss, percent inhibition against vehicle treated disease model [1, 5]: (94.5%)
- Inflammation, percent inhibition against vehicle treated disease model [1, 5]: (100%)
- Bone Erosion (Mean ± SE) [1, 6]: 1.13 ± 0.46
- Cartilage destruction (Mean ± SE) [1, 6]: 2.90 ± 0.63
- GAG Loss (Mean ± SE) [1, 6]: 2.04 ± 0.62
- Inflammation (Mean ± SE) [1, 6]: 3.25 ± 1.02
- Bone Erosion (Mean ± SE) [1, 7]: 0.00 ± 0.00
- Cartilage destruction (Mean ± SE) [1, 7]: 0.13 ± 0.05
- GAG Loss (Mean ± SD) [1, 7]: 0.21 ± 0.17
- Inflammation (Mean ± SE) [1, 7]: 0.00 ± 0.00
- serum IL-1β inhibition compared to diseased control [2]: 71.5%
- pain tolerance improvement vs vehicle-treated CIA ([3]; AP CIA study, Methotrexate 0.5 mg/kg, day 20): 69.4%
- range of reduction in pain sensitivity vs vehicle treated CIA rats ([3]; AP CIA study, days 12-20): 8.39-69.4%
- Compression pain resistance vs CIA + vehicle (Mean ± SD) ([3]; Boost, MTX 0.5 mg/kg, AP 200 mg/kg): −1.50%
- Compression pain resistance vs CIA + vehicle (Mean ± SD) ([3]; Day 12, MTX 0.5 mg/kg, AP 200 mg/kg): 8.39%
- Compression pain resistance vs CIA + vehicle (Mean ± SD) ([3]; Day 14, MTX 0.5 mg/kg, AP 200 mg/kg): 27.30%
- Compression pain resistance vs CIA + vehicle (Mean ± SD) ([3]; Day 16, MTX 0.5 mg/kg, AP 200 mg/kg): 54.31%
- Compression pain resistance vs CIA + vehicle (Mean ± SD) ([3]; Day 18, MTX 0.5 mg/kg, AP 200 mg/kg): 64.13%
- Compression pain resistance vs CIA + vehicle (Mean ± SD) ([3]; Day 20, MTX 0.5 mg/kg, AP 200 mg/kg): 69.35%
- Compression pain resistance vs CIA + vehicle (Mean ± SD) ([3]; MTX 75 μg/kg, AMK 200 mg/kg oral, Boost): 0.27 ± 2.16%
- Compression pain resistance vs CIA + vehicle (Mean ± SD) ([3]; MTX 75 μg/kg, AMK 200 mg/kg oral, Day 12): 6.8%
- Compression pain resistance vs CIA + vehicle (Mean ± SD) ([3]; MTX 75 μg/kg, AMK 200 mg/kg oral, Day 12, listed as MTX): 6.75 ± 4.56 %
- Compression pain resistance vs CIA + vehicle (Mean ± SD) ([3]; MTX 75 μg/kg, AMK 200 mg/kg oral, Day 14): 13.5%
- Compression pain resistance vs CIA + vehicle (Mean ± SD) ([3]; MTX 75 μg/kg, AMK 200 mg/kg oral, Day 14, listed as MTX): 13.48 ± 15.98%
- Compression pain resistance vs CIA + vehicle (Mean ± SD) ([3]; MTX 75 μg/kg, AMK 200 mg/kg oral, Day 16): 28.2%
- Compression pain resistance vs CIA + vehicle (Mean ± SD) ([3]; MTX 75 μg/kg, AMK 200 mg/kg oral, Day 16, listed as MTX): 28.18 ± 12.53 %
- Compression pain resistance vs CIA + vehicle (Mean ± SD) ([3]; MTX 75 μg/kg, AMK 200 mg/kg oral, Day 19): 40.8%
- Compression pain resistance vs CIA + vehicle (Mean ± SD) ([3]; MTX 75 μg/kg, AMK 200 mg/kg oral, Day 19, listed as MTX): 40.77%
- Compression pain resistance vs CIA + vehicle (Mean ± SD) ([3]; MTX 75 μg/kg, AMK 200 mg/kg oral, Day 21): 43.9%
- Compression pain resistance vs CIA + vehicle (Mean ± SD) ([3]; MTX 75 μg/kg, AMK 200 mg/kg oral, Day 21, listed as MTX): 43.88 ± 5.97^¥ %
- Compression pain resistance vs CIA + vehicle (Mean ± SD) ([3]; MTX 75 μg/kg, AMK 200 mg/kg oral, Prime): −0.12 ± 1.39%
- Compression pain resistance vs CIA + vehicle (Mean ± SD) ([3]; Prime, MTX 0.5 mg/kg, AP 200 mg/kg): −1.20%
